# Experiments:
# [1] = target: 5-hydroxytryptamine receptor 7 (Homo sapiens, UniProt P34969); experiment: GPCRScan assay: inhibition of 5-HT7A; set-up: radioligand conc. used [nm] 5.0 – 6.0, parental cells Stable HEK
# [2] = target: Sigma intracellular receptor 2 (Homo sapiens, UniProt Q5BJF2); experiment: GPCRScan assay: inhibition of Sigma 2; set-up: radioligand conc. used [nm] 5.0, parental cells HEKT
# [3] = target: Mitogen-activated protein kinase kinase kinase 2 (Homo sapiens) (UniProt Q9Y2U5); settings: Compound concentration 1000.0 nM
# [4] = tested on: Phosphatidylinositol 4,5-bisphosphate 3-kinase catalytic subunit alpha isoform (Homo sapiens), P42336 [M1043I]; settings: Compound concentration 1000.0 nM
# Chain of Phosphatidylinositol 4,5-bisphosphate 3-kinase catalytic subunit alpha isoform (Homo sapiens), P42336 [M1043I] (P42336 whole entry M1043I, the tested form may be a part, canonical isoform): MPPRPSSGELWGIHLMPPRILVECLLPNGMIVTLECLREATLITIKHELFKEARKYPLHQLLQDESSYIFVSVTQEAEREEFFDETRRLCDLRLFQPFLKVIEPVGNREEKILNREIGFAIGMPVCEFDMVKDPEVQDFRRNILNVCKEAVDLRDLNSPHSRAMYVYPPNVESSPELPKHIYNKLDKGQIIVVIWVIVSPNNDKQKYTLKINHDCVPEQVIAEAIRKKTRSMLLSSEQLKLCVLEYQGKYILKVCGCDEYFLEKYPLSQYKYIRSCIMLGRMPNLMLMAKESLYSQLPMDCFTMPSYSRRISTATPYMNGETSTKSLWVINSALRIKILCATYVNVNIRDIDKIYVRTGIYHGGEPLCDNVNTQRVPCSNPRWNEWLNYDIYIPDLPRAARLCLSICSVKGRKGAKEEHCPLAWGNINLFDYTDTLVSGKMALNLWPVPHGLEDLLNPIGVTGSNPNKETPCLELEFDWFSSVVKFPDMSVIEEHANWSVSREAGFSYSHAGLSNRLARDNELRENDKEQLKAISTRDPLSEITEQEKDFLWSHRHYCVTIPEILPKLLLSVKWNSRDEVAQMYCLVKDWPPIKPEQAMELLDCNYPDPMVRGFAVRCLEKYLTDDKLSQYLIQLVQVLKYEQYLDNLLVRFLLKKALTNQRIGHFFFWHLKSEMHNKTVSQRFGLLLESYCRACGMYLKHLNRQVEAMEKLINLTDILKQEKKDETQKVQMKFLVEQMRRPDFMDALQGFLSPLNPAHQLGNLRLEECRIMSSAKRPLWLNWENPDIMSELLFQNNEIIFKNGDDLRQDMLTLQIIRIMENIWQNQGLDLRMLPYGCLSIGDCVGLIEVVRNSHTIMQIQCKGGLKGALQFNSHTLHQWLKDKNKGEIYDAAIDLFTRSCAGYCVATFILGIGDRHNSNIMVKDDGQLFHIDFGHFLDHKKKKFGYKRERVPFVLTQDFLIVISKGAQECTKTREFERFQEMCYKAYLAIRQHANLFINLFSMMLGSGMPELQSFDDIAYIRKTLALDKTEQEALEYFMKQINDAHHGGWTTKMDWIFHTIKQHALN
# [5] = target: Phosphatidylinositol 4-phosphate 3-kinase C2 domain-containing subunit beta (Homo sapiens) (UniProt O00750); settings: Compound concentration 1000.0 nM
# [6] = target: Dual specificity tyrosine-phosphorylation-regulated kinase 1A (Homo sapiens) (UniProt Q13627); settings: Compound concentration 1000.0 nM
# [7] = target: Mitogen-activated protein kinase kinase kinase kinase 3 (Homo sapiens) (UniProt Q8IVH8); settings: Compound concentration 1000.0 nM
# [8] = target: Ribosomal protein S6 kinase alpha-4 (Homo sapiens) (UniProt O75676); settings: Compound concentration 1000.0 nM
# Chain of Ribosomal protein S6 kinase alpha-4 (Homo sapiens) (O75676 whole entry, looked up): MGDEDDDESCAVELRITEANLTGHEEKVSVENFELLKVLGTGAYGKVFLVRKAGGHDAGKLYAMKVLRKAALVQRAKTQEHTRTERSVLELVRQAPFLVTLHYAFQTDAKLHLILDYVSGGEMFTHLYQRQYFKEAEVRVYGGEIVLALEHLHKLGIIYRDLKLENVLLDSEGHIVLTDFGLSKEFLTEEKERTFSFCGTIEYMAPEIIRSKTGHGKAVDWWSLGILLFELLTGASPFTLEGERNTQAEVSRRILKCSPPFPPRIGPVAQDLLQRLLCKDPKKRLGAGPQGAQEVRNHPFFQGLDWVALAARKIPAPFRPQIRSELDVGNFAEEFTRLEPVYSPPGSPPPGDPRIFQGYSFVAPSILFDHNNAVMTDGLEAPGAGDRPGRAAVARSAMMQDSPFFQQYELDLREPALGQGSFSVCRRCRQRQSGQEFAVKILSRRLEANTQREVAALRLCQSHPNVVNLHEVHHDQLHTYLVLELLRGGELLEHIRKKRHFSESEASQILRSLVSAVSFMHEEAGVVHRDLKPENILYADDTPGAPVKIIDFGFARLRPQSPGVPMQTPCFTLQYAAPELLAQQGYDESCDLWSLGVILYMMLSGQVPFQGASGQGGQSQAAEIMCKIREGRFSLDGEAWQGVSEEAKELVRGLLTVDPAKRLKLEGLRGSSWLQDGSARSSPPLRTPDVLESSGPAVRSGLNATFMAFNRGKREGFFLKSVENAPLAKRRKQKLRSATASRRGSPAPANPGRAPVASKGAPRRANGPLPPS
# [9] = target: Mitogen-activated protein kinase 1 (Homo sapiens) (UniProt P28482); settings: Compound concentration 1000.0 nM
# [10] = target: Cytoplasmic tyrosine-protein kinase BMX (Homo sapiens) (UniProt P51813); settings: Compound concentration 1000.0 nM
# [11] = target: Cyclin-dependent kinase 2 homolog (Plasmodium falciparum (isolate 3D7)) (UniProt P61075); settings: Compound concentration 1000.0 nM
# [12] = target: Calcium-dependent protein kinase 1 (Plasmodium falciparum) (UniProt P62344); settings: Compound concentration 1000.0 nM
# [13] = target: Tyrosine-protein kinase ABL1 (Homo sapiens) (UniProt P00519); settings: Compound concentration 1000.0 nM
# [14] = target: G protein-coupled receptor kinase 4 (Homo sapiens) (UniProt P32298); settings: Compound concentration 1000.0 nM
# Chain of G protein-coupled receptor kinase 4 (Homo sapiens) (P32298 whole entry, looked up, canonical isoform): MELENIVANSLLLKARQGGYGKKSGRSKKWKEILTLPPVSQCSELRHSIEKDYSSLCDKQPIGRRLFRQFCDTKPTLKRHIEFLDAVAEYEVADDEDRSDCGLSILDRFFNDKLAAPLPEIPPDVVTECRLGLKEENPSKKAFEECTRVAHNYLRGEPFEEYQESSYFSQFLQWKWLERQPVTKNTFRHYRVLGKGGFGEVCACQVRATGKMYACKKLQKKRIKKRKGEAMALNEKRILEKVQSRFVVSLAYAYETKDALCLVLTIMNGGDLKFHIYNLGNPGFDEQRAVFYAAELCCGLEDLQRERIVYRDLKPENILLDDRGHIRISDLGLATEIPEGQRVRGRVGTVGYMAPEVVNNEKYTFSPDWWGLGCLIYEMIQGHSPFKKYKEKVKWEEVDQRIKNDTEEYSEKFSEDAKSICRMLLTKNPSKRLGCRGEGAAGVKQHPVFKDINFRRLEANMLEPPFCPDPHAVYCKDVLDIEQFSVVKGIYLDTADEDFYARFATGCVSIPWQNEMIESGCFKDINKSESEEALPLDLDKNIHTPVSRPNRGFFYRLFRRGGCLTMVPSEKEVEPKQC
# [15] = tested on: Phosphatidylinositol 4,5-bisphosphate 3-kinase catalytic subunit alpha isoform (Homo sapiens), P42336 [E545A]; settings: Compound concentration 1000.0 nM
# [16] = target: Dual specificity mitogen-activated protein kinase kinase 3 (Homo sapiens) (UniProt P46734); settings: Compound concentration 1000.0 nM
# [17] = target: High affinity nerve growth factor receptor (Homo sapiens) (UniProt P04629); settings: Compound concentration 1000.0 nM
# [18] = target: Myosin light chain kinase, smooth muscle (Homo sapiens) (UniProt Q15746); settings: Compound concentration 1000.0 nM
# [19] = target: Serine/threonine-protein kinase pim-2 (Homo sapiens) (UniProt Q9P1W9); settings: Compound concentration 1000.0 nM
# Chain of Serine/threonine-protein kinase pim-2 (Homo sapiens) (Q9P1W9 whole entry, looked up): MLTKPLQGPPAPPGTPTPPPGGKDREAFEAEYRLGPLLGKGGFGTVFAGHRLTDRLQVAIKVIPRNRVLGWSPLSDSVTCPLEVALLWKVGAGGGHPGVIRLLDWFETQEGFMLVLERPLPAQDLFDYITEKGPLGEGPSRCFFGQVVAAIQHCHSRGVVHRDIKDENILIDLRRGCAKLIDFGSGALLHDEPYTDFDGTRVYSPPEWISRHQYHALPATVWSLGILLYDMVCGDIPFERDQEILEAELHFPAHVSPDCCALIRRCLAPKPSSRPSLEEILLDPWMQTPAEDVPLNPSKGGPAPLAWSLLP
# [20] = target: Insulin-like growth factor 1 receptor (Homo sapiens) (UniProt P08069); settings: Compound concentration 1000.0 nM
# [21] = tested on: Epidermal growth factor receptor (Homo sapiens), P00533 [L858R]; settings: Compound concentration 1000.0 nM
# [22] = target: Ephrin type-A receptor 4 (Homo sapiens) (UniProt P54764); settings: Compound concentration 1000.0 nM
# [23] = target: Ribosomal protein S6 kinase alpha-3 (Homo sapiens) (UniProt P51812); settings: Compound concentration 1000.0 nM
# [24] = target: Ribosomal protein S6 kinase alpha-1 (Homo sapiens) (UniProt Q15418); settings: Compound concentration 1000.0 nM
# [25] = target: Epithelial discoidin domain-containing receptor 1 (Homo sapiens) (UniProt Q08345); settings: Compound concentration 1000.0 nM
# [26] = target: Cyclin-dependent kinase-like 5 (Homo sapiens) (UniProt O76039); settings: Compound concentration 1000.0 nM
# [27] = target: Serine/threonine-protein kinase PAK 4 (Homo sapiens) (UniProt O96013); settings: Compound concentration 1000.0 nM
# [28] = target: Serine/threonine-protein kinase Nek6 (Homo sapiens) (UniProt Q9HC98); settings: Compound concentration 1000.0 nM
# [29] = target: Cyclin-dependent kinase-like 2 (Homo sapiens) (UniProt Q92772); settings: Compound concentration 1000.0 nM
# [30] = target: Protein kinase C epsilon type (Homo sapiens) (UniProt Q02156); settings: Compound concentration 1000.0 nM
# [31] = target: Insulin receptor-related protein (Homo sapiens) (UniProt P14616); settings: Compound concentration 1000.0 nM
# Chain of Insulin receptor-related protein (Homo sapiens) (P14616 27-742 limits assumed): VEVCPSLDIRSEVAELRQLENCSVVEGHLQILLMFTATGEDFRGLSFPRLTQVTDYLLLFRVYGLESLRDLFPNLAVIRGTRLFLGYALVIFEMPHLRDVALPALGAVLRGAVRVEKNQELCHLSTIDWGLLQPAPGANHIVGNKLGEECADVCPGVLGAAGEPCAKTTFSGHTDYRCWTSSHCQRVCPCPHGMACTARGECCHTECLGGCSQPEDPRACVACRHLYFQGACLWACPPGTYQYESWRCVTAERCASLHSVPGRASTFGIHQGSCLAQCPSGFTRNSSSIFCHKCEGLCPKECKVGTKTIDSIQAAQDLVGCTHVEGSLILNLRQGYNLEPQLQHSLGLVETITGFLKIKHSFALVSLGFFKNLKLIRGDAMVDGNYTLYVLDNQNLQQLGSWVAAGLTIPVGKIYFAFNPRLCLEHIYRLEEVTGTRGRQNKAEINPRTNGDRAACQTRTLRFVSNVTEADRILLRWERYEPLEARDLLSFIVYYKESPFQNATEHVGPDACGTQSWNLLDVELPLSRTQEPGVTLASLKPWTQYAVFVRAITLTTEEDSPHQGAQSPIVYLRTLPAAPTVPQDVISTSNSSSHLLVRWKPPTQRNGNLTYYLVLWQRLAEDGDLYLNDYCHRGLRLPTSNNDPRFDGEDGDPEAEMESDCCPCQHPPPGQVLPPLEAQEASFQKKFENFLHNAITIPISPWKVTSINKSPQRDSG
# Chain of Insulin receptor-related protein (Homo sapiens) (P14616 747-1297 limits assumed): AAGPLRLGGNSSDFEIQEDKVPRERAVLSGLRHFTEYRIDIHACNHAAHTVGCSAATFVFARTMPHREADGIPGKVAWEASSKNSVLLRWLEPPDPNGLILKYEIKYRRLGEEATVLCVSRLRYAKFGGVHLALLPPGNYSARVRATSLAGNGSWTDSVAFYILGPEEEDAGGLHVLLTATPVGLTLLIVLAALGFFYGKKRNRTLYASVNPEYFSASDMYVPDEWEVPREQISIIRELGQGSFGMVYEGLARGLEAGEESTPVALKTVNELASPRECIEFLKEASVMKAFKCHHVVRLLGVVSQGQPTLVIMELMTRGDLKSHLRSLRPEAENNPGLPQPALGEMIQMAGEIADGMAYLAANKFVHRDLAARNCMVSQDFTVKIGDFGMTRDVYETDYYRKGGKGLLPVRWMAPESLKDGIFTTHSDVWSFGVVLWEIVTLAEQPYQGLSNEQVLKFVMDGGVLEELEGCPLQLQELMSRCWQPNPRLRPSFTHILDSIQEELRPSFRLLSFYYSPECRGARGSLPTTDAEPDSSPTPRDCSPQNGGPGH
# [32] = target: Rhodopsin kinase GRK1 (Homo sapiens) (UniProt Q15835); settings: Compound concentration 1000.0 nM
# Chain of Rhodopsin kinase GRK1 (Homo sapiens) (Q15835 whole entry): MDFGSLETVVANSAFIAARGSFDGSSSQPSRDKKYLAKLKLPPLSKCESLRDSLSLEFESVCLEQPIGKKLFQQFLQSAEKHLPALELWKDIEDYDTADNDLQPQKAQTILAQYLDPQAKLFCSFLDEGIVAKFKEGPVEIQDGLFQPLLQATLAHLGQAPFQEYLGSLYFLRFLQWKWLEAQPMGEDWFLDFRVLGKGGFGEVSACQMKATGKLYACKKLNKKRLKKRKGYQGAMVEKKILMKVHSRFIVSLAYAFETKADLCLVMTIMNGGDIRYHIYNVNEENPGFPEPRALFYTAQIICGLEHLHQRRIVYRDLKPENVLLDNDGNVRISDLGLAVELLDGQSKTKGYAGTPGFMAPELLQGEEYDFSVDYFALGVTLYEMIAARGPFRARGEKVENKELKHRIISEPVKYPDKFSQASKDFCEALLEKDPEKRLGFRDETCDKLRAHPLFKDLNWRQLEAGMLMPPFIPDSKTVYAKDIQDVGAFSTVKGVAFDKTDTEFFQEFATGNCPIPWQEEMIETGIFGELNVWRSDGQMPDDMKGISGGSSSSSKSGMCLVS
# [33] = target: Muscle, skeletal receptor tyrosine-protein kinase (Homo sapiens) (UniProt O15146); settings: Compound concentration 1000.0 nM
# [34] = tested on: Tyrosine-protein kinase ABL1 (Homo sapiens), P00519 [F317L]; settings: Compound concentration 1000.0 nM
# [35] = target: Receptor tyrosine-protein kinase erbB-2 (Homo sapiens) (UniProt P04626); settings: Compound concentration 1000.0 nM
# [36] = target: Serine/threonine-protein kinase TAO2 (Homo sapiens) (UniProt Q9UL54); settings: Compound concentration 1000.0 nM
# [37] = tested on: Tyrosine-protein kinase ABL1 (Homo sapiens), P00519 [F317I]; settings: Compound concentration 1000.0 nM
# [38] = target: Phosphatidylinositol 4-phosphate 5-kinase type-1 alpha (Homo sapiens) (UniProt Q99755); settings: Compound concentration 1000.0 nM
# [39] = target: Serine/threonine-protein kinase N2 (Homo sapiens) (UniProt Q16513); settings: Compound concentration 1000.0 nM
# [40] = target: Mitogen-activated protein kinase kinase kinase 4 (Homo sapiens) (UniProt Q9Y6R4); settings: Compound concentration 1000.0 nM
# [41] = target: Serine/threonine-protein kinase Nek10 (Homo sapiens) (UniProt Q6ZWH5); settings: Compound concentration 1000.0 nM
# [42] = target: SRSF protein kinase 1 (Homo sapiens) (UniProt Q96SB4); settings: Compound concentration 1000.0 nM
# [43] = target: Serine/threonine-protein kinase RIO1 (Homo sapiens) (UniProt Q9BRS2); settings: Compound concentration 1000.0 nM
# [44] = target: Serine/threonine-protein kinase SIK3 (Homo sapiens) (UniProt Q9Y2K2); settings: Compound concentration 1000.0 nM
# [45] = target: Interleukin-1 receptor-associated kinase 4 (Homo sapiens) (UniProt Q9NWZ3); settings: Compound concentration 1000.0 nM
# Chain of 5-hydroxytryptamine receptor 7 (P34969 whole entry): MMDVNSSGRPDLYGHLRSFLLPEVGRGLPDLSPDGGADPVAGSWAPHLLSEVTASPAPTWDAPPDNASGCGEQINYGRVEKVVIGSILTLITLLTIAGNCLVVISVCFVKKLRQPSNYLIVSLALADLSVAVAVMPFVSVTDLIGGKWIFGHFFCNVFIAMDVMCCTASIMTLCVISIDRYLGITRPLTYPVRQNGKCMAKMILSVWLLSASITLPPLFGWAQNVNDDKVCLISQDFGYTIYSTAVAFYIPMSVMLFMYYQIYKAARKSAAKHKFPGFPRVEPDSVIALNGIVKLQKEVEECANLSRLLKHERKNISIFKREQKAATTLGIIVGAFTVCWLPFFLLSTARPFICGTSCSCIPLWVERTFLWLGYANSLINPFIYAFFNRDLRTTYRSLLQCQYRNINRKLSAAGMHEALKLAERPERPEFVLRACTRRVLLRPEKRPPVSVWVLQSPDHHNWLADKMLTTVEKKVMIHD
smiles,measurement,setting,value
CC(C)(C)OC(=O)N1CCCC1CNC1CCC(c2cc(F)ccc2F)(S(=O)(=O)c2ccc(Cl)cc2)CC1 (stereo unspecified) [GSI-NC],Ki,[1]; read-out: Ki,826 nM
same,Ki,[1]; read-out: pKi (converted),851 nM
same,Ki,[2],959 nM
O=S(=O)(NC1CCC(c2cc(F)ccc2F)(S(=O)(=O)c2ccc(Cl)cc2)CC1)C(F)(F)F (stereo unspecified) [MRK-560],residual activity,[3],98%
same,residual activity,[4],100%
same,residual activity,[5],100%
same,residual activity,[6],78%
same,residual activity,[7],100%
same,residual activity,[8],100%
same,residual activity,[9],100%
same,residual activity,[10],93%
same,residual activity,[11],100%
same,residual activity,[12],100%
same,residual activity,[13],88%
same,residual activity,[14],100%
same,residual activity,[15],95%
same,residual activity,[16],83%
same,residual activity,[17],76%
same,residual activity,[18],100%
same,residual activity,[19],100%
same,residual activity,[20],100%
same,residual activity,[21],100%
same,residual activity,[22],95%
same,residual activity,[23],96%
same,residual activity,[24],100%
same,residual activity,[25],100%
same,residual activity,[26],87%
same,residual activity,[27],100%
same,residual activity,[28],100%
same,residual activity,[29],100%
same,residual activity,[30],52%
same,residual activity,[31],100%
same,residual activity,[32],84%
same,residual activity,[33],100%
same,residual activity,[34],100%
same,residual activity,[35],91%
same,residual activity,[36],100%
same,residual activity,[37],100%
same,residual activity,[38],100%
same,residual activity,[39],100%
same,residual activity,[40],99%
same,residual activity,[41],100%
same,residual activity,[42],100%
same,residual activity,[43],98%
same,residual activity,[44],100%
same,residual activity,[45],97%

# Reference: ChEMBL document CHEMBL4507288 (2021)
